Test results as given in ChEMBL document CHEMBL5058564, “EUbOPEN Chemogenomics Library 2 (Incucyte)” (2022).
Where a SMILES comes first, the peptide text is derived from it. Bridges are numbered along the chain shown (N, C = ends). [ ]: non-standard residue; d: D form. Orn = NCCC[C@H](N)C(=O)O; Mpa = O=C(O)CCS

Tests used:
Format in all cases: toxicity, cell-based
[1] = tested on: Fibroblast; assay: Incucyte cell viability with human fibroblast; conditions: 10 µM, compound concentration 10 uM
[2] = tested on: U2OS; assay: Incucyte cell viability with U2OS; conditions: human, 10 µM, compound concentration 10 uM
[3] = tested on: HEK-293T; assay: Incucyte cell viability with HEK293T; conditions: human, 10 µM, compound concentration 10 uM
[4] = 0 h, replicate number 2, timepoint 0 hours
[5] = 6 h, replicate number 1, timepoint 6 hours
[6] = 6 h, replicate number 2, timepoint 6 hours
[7] = 12 h, replicate number 1, timepoint 12 hours
[8] = 12 h, replicate number 2, timepoint 12 hours
[9] = 0 h, replicate number 1, timepoint 0 hours
[10] = 18 h, replicate number 2, timepoint 18 hours
[11] = 18 h, replicate number 1, timepoint 18 hours
[12] = 24 h, replicate number 1, timepoint 24 hours
[13] = 24 h, replicate number 2, timepoint 24 hours
Also: unitless GR value; below 1 slowed growth and below 0 cell loss.

SMILES: COC(c1ccccc1)(c1ccccc1)[C@H](Oc1nc(C)cc(C)n1)C(=O)O [AMBRISENTAN]
- Growth Rate [1, 4]: 0.74
- Growth Rate [1, 5]: 0.41
- Growth Rate [1, 6]: 0.53
- Growth Rate [1, 7]: 0.97
- Growth Rate [1, 8]: 0.6
- Growth Rate [2, 9]: -0.03
- Growth Rate [2, 4]: -1
- Growth Rate [2, 10]: 0.96
- Growth Rate [3, 4]: 0.79
- Growth Rate [3, 7]: 0.96
- Growth Rate [3, 11]: 0.99
- Growth Rate [3, 12]: 0.97

SMILES: Cc1nnc2n1-c1sc(CCC(=O)N3CCOCC3)cc1C(c1ccccc1Cl)=NC2 [APAFANT]
- Growth Rate [1, 4]: 0.77
- Growth Rate [1, 5]: 0.26
- Growth Rate [1, 6]: 0.74
- Growth Rate [1, 7]: 0.81
- Growth Rate [1, 8]: 0.51
- Growth Rate [1, 10]: 0.73
- Growth Rate [1, 13]: 0.95
- Growth Rate [2, 5]: 0.99
- Growth Rate [2, 6]: 0.76
- Growth Rate [2, 8]: 0.88
- Growth Rate [2, 10]: 0.75
- Growth Rate [2, 13]: 0.93
- Growth Rate [3, 9]: 0.99

SMILES: C[C@@H](O[C@H]1OCCN(Cc2n[nH]c(=O)[nH]2)[C@H]1c1ccc(F)cc1)c1cc(C(F)(F)F)cc(C(F)(F)F)c1 [APREPITANT]
- Growth Rate [1, 5]: 0.71
- Growth Rate [1, 6]: -0.37
- Growth Rate [1, 7]: 0.39
- Growth Rate [1, 8]: -0.12
- Growth Rate [1, 11]: 0.18
- Growth Rate [1, 10]: 0.17
- Growth Rate [1, 12]: 0.28
- Growth Rate [1, 13]: 0.5
- Growth Rate [2, 9]: -0.52
- Growth Rate [2, 4]: -1
- Growth Rate [2, 5]: 0.29
- Growth Rate [2, 6]: 0.58
- Growth Rate [2, 8]: 0.65
- Growth Rate [2, 11]: 0.9
- Growth Rate [2, 10]: 0.69
- Growth Rate [2, 13]: 0.79
- Growth Rate [3, 5]: 0.91
- Growth Rate [3, 6]: 0.66
- Growth Rate [3, 7]: 0.57
- Growth Rate [3, 8]: 0.97
- Growth Rate [3, 11]: 0.77
- Growth Rate [3, 10]: 0.84
- Growth Rate [3, 12]: 0.74

SMILES: CC(C)[C@H](C(=O)Nc1ccc(C(=O)NO)cc1)c1ccccc1 [AR-42]
- Growth Rate [1, 9]: 0.24
- Growth Rate [1, 4]: 0
- Growth Rate [2, 9]: -0.37
- Growth Rate [2, 4]: 0.37
- Growth Rate [2, 5]: 0.34
- Growth Rate [2, 6]: 0.99
- Growth Rate [2, 7]: 0.5
- Growth Rate [2, 8]: 0.71
- Growth Rate [2, 11]: 0.3
- Growth Rate [2, 10]: 0.56
- Growth Rate [2, 12]: 0.39
- Growth Rate [2, 13]: 0.42
- Growth Rate [3, 9]: 0.33
- Growth Rate [3, 4]: 0
- Growth Rate [3, 7]: 0.65
- Growth Rate [3, 8]: 0.04
- Growth Rate [3, 11]: 0.28
- Growth Rate [3, 12]: 0.18
- Growth Rate [3, 13]: 0.23

SMILES: CCCCC/C=C\C/C=C\C/C=C\C/C=C\CCCC(=O)NCC(=O)O [ARACHIDONOYL GLYCINE]
- Growth Rate [1, 9]: 0.41
- Growth Rate [1, 4]: 0.25
- Growth Rate [1, 5]: 0.18
- Growth Rate [1, 6]: 0.75
- Growth Rate [1, 7]: 0.75
- Growth Rate [1, 8]: 0.99
- Growth Rate [1, 11]: 0.78
- Growth Rate [1, 10]: 0.93
- Growth Rate [1, 12]: 0.8
- Growth Rate [1, 13]: 0.79
- Growth Rate [2, 9]: -0.29
- Growth Rate [2, 4]: 0.28
- Growth Rate [2, 5]: 0.64
- Growth Rate [2, 7]: 0.64
- Growth Rate [2, 8]: 0.9
- Growth Rate [2, 11]: 0.72
- Growth Rate [2, 10]: 0.97
- Growth Rate [2, 12]: 0.76
- Growth Rate [3, 9]: 0.53
- Growth Rate [3, 4]: 0.42
- Growth Rate [3, 7]: 0.8
- Growth Rate [3, 11]: 0.64
- Growth Rate [3, 10]: 0.93
- Growth Rate [3, 12]: 0.52
- Growth Rate [3, 13]: 0.83

SMILES: C[C@H]1[C@H](OC(=O)CCC(=O)O)O[C@@H]2O[C@@]3(C)CC[C@H]4[C@H](C)CC[C@@H]1[C@@]24OO3 [ARTESUNATE]
- Growth Rate [1, 9]: 0.98
- Growth Rate [1, 4]: 0.19
- Growth Rate [1, 7]: 0.22
- Growth Rate [1, 8]: 0.75
- Growth Rate [1, 11]: -0.31
- Growth Rate [1, 10]: 0.04
- Growth Rate [1, 12]: -0.42
- Growth Rate [1, 13]: -0.06
- Growth Rate [2, 9]: 0.12
- Growth Rate [2, 4]: 0.07
- Growth Rate [2, 5]: 0.66
- Growth Rate [2, 6]: 0.72
- Growth Rate [2, 8]: 0.85
- Growth Rate [2, 11]: 0.86
- Growth Rate [2, 10]: 0.75
- Growth Rate [2, 12]: 0.98
- Growth Rate [2, 13]: 0.81
- Growth Rate [3, 4]: 0.58
- Growth Rate [3, 5]: 0.56
- Growth Rate [3, 7]: -0.23
- Growth Rate [3, 8]: -0.1
- Growth Rate [3, 11]: -0.07
- Growth Rate [3, 10]: -0.18
- Growth Rate [3, 12]: -0.08
- Growth Rate [3, 13]: -0.16

SMILES: CCOc1ccc(C[C@H]2NC(=O)CCSSC[C@@H](C(=O)N3CCC[C@H]3C(=O)N[C@@H](CCCN)C(=O)NCC(N)=O)NC(=O)[C@H](CC(N)=O)NC(=O)[C@H]([C@@H](C)O)NC(=O)[C@H]([C@@H](C)CC)NC2=O)cc1 [ATOSIBAN] ([Mpa][dY](Et)ITNCP[Orn]G-NH2; disulfide 1-6)
- Growth Rate [1, 9]: 0.49
- Growth Rate [1, 4]: 0.42
- Growth Rate [1, 6]: 0.56
- Growth Rate [1, 7]: 0.64
- Growth Rate [1, 8]: 0.4
- Growth Rate [2, 4]: -1
- Growth Rate [2, 6]: 0.76
- Growth Rate [2, 8]: 0.97
- Growth Rate [2, 11]: 0.79
- Growth Rate [2, 10]: 0.89
- Growth Rate [3, 9]: 0.87
- Growth Rate [3, 6]: 0.92
- Growth Rate [3, 8]: 0.83
- Growth Rate [3, 10]: 0.78
- Growth Rate [3, 13]: 0.7

SMILES: CN1[C@@H]2CC[C@H]1C[C@@H](OC(=O)C(CO)c1ccccc1)C2 (stereo partly drawn) [ATROPINE]
- Growth Rate [1, 9]: -0.04
- Growth Rate [1, 4]: -0.32
- Growth Rate [1, 10]: 0.91
- Growth Rate [2, 5]: 0.86
- Growth Rate [2, 7]: 0.79
- Growth Rate [2, 8]: 0.96
- Growth Rate [2, 10]: 0.95
- Growth Rate [3, 5]: 0.9
- Growth Rate [3, 6]: 0.19
- Growth Rate [3, 7]: 0.68
- Growth Rate [3, 8]: 0.53
- Growth Rate [3, 11]: 0.6
- Growth Rate [3, 10]: 0.65
- Growth Rate [3, 12]: 0.44
- Growth Rate [3, 13]: 0.6

SMILES: CC(=O)Nc1cccc2c1c(Sc1ccc(Cl)cc1)c(C)n2CC(=O)O [AZD1981]
- Growth Rate [1, 4]: 0.38
- Growth Rate [1, 5]: 0.15
- Growth Rate [1, 6]: 0.04
- Growth Rate [1, 7]: 0.35
- Growth Rate [1, 8]: 0.14
- Growth Rate [1, 10]: 0.25
- Growth Rate [1, 12]: 0.73
- Growth Rate [1, 13]: 0.26
- Growth Rate [2, 6]: 0.93
- Growth Rate [2, 10]: 0.89
- Growth Rate [2, 13]: 0.95
- Growth Rate [3, 4]: 0.75
- Growth Rate [3, 5]: 0.62
- Growth Rate [3, 7]: 0.62
- Growth Rate [3, 11]: 0.83
- Growth Rate [3, 12]: 0.71

SMILES: CC(C)C[C@H](CO)Nc1nc(S[C@@H](C)c2ccccc2)nc2nc(N)sc12 [AZD-8797]
- Growth Rate [1, 9]: 0.26
- Growth Rate [1, 5]: 0.37
- Growth Rate [1, 7]: 0.47
- Growth Rate [1, 11]: 0.83
- Growth Rate [1, 12]: 0.54
- Growth Rate [2, 4]: -1
- Growth Rate [2, 7]: 0.93
- Growth Rate [2, 8]: 0.82
- Growth Rate [2, 10]: 0.7
- Growth Rate [2, 13]: 0.79
- Growth Rate [3, 7]: 0.77
- Growth Rate [3, 8]: 0.99
- Growth Rate [3, 11]: 0.82
- Growth Rate [3, 12]: 0.93

SMILES: COc1cc(NC(=O)CCN2CCC(OC(=O)Nc3ccccc3-c3ccccc3)CC2)c(Cl)cc1CNC[C@H](O)c1ccc(O)c2[nH]c(=O)ccc12 [BATEFENTEROL]
- Growth Rate [1, 9]: -0.65
- Growth Rate [1, 4]: 0.38
- Growth Rate [2, 4]: -1
- Growth Rate [2, 11]: 0.93
- Growth Rate [2, 10]: 0.95
- Growth Rate [2, 12]: 1
- Growth Rate [2, 13]: 0.9
- Growth Rate [3, 9]: -0.23
- Growth Rate [3, 4]: 0.01
- Growth Rate [3, 7]: 0.88
- Growth Rate [3, 8]: 0.79
- Growth Rate [3, 11]: 0.8
- Growth Rate [3, 10]: 1

SMILES: CCc1ccccc1C(=O)Nc1n[nH]c2c(C)c(F)c(C3C(C#N)=C(C)N(C)C(C)=C3C#N)cc12 [BAY-3827]
- Growth Rate [1, 9]: 0.51
- Growth Rate [1, 4]: -0.4
- Growth Rate [1, 5]: 0.12
- Growth Rate [1, 7]: 0.64
- Growth Rate [1, 11]: 0.79
- Growth Rate [1, 12]: 0.56
- Growth Rate [2, 4]: 0.74
- Growth Rate [2, 13]: 0.87
- Growth Rate [3, 4]: -1
- Growth Rate [3, 5]: 0.43
- Growth Rate [3, 7]: 0.35
- Growth Rate [3, 11]: 0.5
- Growth Rate [3, 12]: 0.55

SMILES: CCC(=O)OCC(=O)[C@@]1(OC(=O)CC)[C@@H](C)C[C@H]2[C@@H]3CCC4=CC(=O)C=C[C@]4(C)[C@@]3(Cl)[C@@H](O)C[C@@]21C [BECLOMETHASONE DIPROPIONATE]
- Growth Rate [1, 9]: -0.17
- Growth Rate [1, 4]: -0.56
- Growth Rate [2, 9]: -0.25
- Growth Rate [2, 4]: 0.62
- Growth Rate [2, 5]: 0.73
- Growth Rate [2, 7]: 0.81
- Growth Rate [2, 8]: 0.85
- Growth Rate [2, 11]: 0.8
- Growth Rate [2, 10]: 0.81
- Growth Rate [2, 12]: 0.78
- Growth Rate [2, 13]: 0.9
- Growth Rate [3, 9]: 0.14
- Growth Rate [3, 4]: -0.33
- Growth Rate [3, 5]: 0.91
- Growth Rate [3, 7]: 0.61
- Growth Rate [3, 8]: 0.8
- Growth Rate [3, 11]: 0.62
- Growth Rate [3, 10]: 0.78
- Growth Rate [3, 12]: 0.65
- Growth Rate [3, 13]: 0.83
